The results in this text go back to ChEMBL document CHEMBL3124780, “The synthesis of 4,7-disubstituted-2H-benzo[b][1,4]-oxazin-3(4H)-ones using Smiles rearrangement and their in vitro evaluation as platelet aggregation inhibitors” (Bioorg Med Chem Lett, 2014).

The assay in a line: Antiplatelet activity in New Zealand rabbit platelet-rich plasma assessed as inhibition of ADP-induced aggregation treated for 5 mins prior to ADP-challenge measured after 1 to 6 mins by spectrophotometric analysis. In kind it is functional, cell-free. The following applies: Oryctolagus cuniculus.

By IC50 is commonly meant the midpoint of a concentration-inhibition curve. Take `CCCCN1C(=O)COc2cc(CN3CCN(c4ccccc4)CC3)ccc21`: the IC50 was found to be 15.5 µM. The result for `CCCCN1C(=O)COc2cc(CN3CCN(c4ccccc4F)CC3)ccc21` reads 17.1 µM; that for `O=C1COc2cc(CN3CCN(c4ccccc4F)CC3)ccc2N1Cc1ccccc1`, 15.3 µM. The result for `CCCN1C(=O)COc2cc(CN3CCN(Cc4ccccc4)CC3)ccc21` reads 9.2 µM.

Regarding `CCN1C(=O)COc2cc(CN3CCOCC3)ccc21`, the IC50 was 10.5 µM. Consider `CC(C)N1C(=O)COc2cc(CN3CCOCC3)ccc21`, for which the IC50 is 11 µM. On to `CCCN1C(=O)COc2cc(CN3CCOCC3)ccc21`, for which the IC50 was determined as 9.63 µM. The result for `CCCCN1C(=O)COc2cc(CN3CCOCC3)ccc21` reads 14.4 µM; that for `O=C1COc2cc(CN3CCOCC3)ccc2N1Cc1ccccc1`, 12.2 µM.

In the case of `CCN1C(=O)COc2cc(CN3CCN(c4ccccc4)CC3)ccc21`, the IC50 is 10.1 µM. Take `CC(C)N1C(=O)COc2cc(CN3CCN(c4ccccc4)CC3)ccc21`: the IC50 was 10.8 µM. The result for `CCCN1C(=O)COc2cc(CN3CCN(c4ccccc4)CC3)ccc21` reads 12.8 µM; that for `O=C1COc2cc(CN3CCN(c4ccccc4)CC3)ccc2N1Cc1ccccc1`, 13.9 µM; that for `CCN1C(=O)COc2cc(CN3CCN(c4ccc(F)cc4)CC3)ccc21`, 11.1 µM. In the case of `CC(C)N1C(=O)COc2cc(CN3CCN(c4ccc(F)cc4)CC3)ccc21` it was 13.3 µM.

As for `CCCN1C(=O)COc2cc(CN3CCN(c4ccc(F)cc4)CC3)ccc21`, the IC50 was 11.4 µM. As for `CCCCN1C(=O)COc2cc(CN3CCN(c4ccc(F)cc4)CC3)ccc21`, the IC50 amounted to 15.2 µM.

On to `O=C1COc2cc(CN3CCN(c4ccc(F)cc4)CC3)ccc2N1Cc1ccccc1`, for which the IC50 came to 19.4 µM. `CCN1C(=O)COc2cc(CN3CCN(c4ccccc4F)CC3)ccc21`: the IC50 came to 12.7 µM.

Regarding `CC(C)N1C(=O)COc2cc(CN3CCN(c4ccccc4F)CC3)ccc21`, the IC50 amounted to 13.6 µM. As to `CCCN1C(=O)COc2cc(CN3CCN(c4ccccc4F)CC3)ccc21`, the IC50 stood at 13.8 µM.

With `CC(=O)Oc1ccccc1C(=O)O` [ASPIRIN], the IC50 stood at 7.07 µM. The result for `Clc1ccccc1CN1CCc2sccc2C1` [TICLOPIDINE] reads 3.72 µM.
